Measurements as given in patent publication US11440909B2, “10H-phenothiazine ferroptosis inhibitor as well as the preparative method and the use thereof” (CHENGDU HENGHAO INVESTMENT CO. LIMITED, priority 2018, dated 2022).

Tested on: fibrosarcoma cell line HT1080
Assay: Ferroptosis screening model (MTT method), Erastin-induced ferroptosis
Type: cell-based, human
Details: HT1080, ferroptosis inducer Erastin, 72 h, average of three tests, read-out: EC50
Procedure, shortened: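 HT1080 cells adhered 24 h, then received compound plus Erastin ([…] final) for 72 h at 37 °C, 5% CO2, in triplicate. Viability by MTT with SDS solubilisation, absorbance at 570 nm; inhibition of ferroptosis fitted to give EC50.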

EC50	SMILES
129 nM	CC(c1ccc2c(c1)Nc1ccccc1S2)S(=O)(=O)N1CCN(C(=O)c2ccc3c(c2)OCCO3)CC1 (stereo not shown) [Compound C19, (4-((1-(10H-phenothiazin-2-yl)ethyl)sulfonyl)piperazin-1-yl)(2,3-dihydrobenzo[b][1,4]dioxane-6-yl)ketone]
730 nM	COc1ccccc1N1CCN(S(=O)(=O)C(C)c2ccc3c(c2)Nc2ccccc2S3)CC1 (stereo not shown) [Compound C22, 2-(1-((4-(2-methoxylphenyl)piperazin-1-yl)sulfonyl)ethyl)-10H-phenothiazine]
417 nM	CC(c1ccc2c(c1)Nc1ccccc1S2)S(=O)(=O)N1CCN(c2ccccc2)CC1 (stereo not shown) [Compound C24, 2-(1-((4-phenylpiperazin-1-yl)sulfonyl)ethyl)-10H-phenothiazine]
142 nM	CC(c1ccc2c(c1)Nc1ccccc1S2)S(=O)(=O)N1CCN(c2ccccc2)CC1 (stereo not shown) [Compound C28, 2-(1-((4-phenylpiperazin-1-yl)sulfonyl)ethyl)-10H-phenothiazine]
327 nM	CC(c1ccc2c(c1)Nc1ccccc1S2)S(=O)(=O)N1CC[C@H](CNC(=O)OC(C)(C)C)C1 (stereo partly drawn) [Compound C33, t-butyl (((3R)-1-((1-(10H-phenothiazin-2-yl)ethyl)sulfonyl)pyrrolin-3-yl)methyl)carbamate]

Same assay, conditions: Homo sapiens, HT-1080, 72 h, HT1080, ferroptosis inducer Erastin, 72 h, average of three tests, read-out: EC50

SMILES	EC50
CC(C)N1CCN(S(=O)(=O)C(C)c2ccc3c(c2)Nc2ccccc2S3)CC1 (stereo not shown) [Compound C4, 2-(1-((4-isopropylpiperazin-1-yl)sulfonyl)ethyl)-10H-phenothiazine]	29 nM
CC(c1ccc2c(c1)Nc1ccccc1S2)S(=O)(=O)N1CCN(Cc2ccc3c(c2)OCO3)CC1 (stereo not shown) [Compound C5, 2-(1-((4-(benzo[d][1,3]dioxa-5-ylmethyl)piperazin-1-yl)sulfonyl)ethyl)-10H-phenothiazine]	35 nM
CC(c1ccc2c(c1)Nc1ccccc1S2)S(=O)(=O)N1CCN(CC(=O)N2CCCC2)CC1 (stereo not shown) [Compound C6, 2-(4-((1-(10H-phenothiazin-2-yl)ethyl)sulfonyl)piperazin-1-yl)-1-(pyrrolin-1-yl)-1-ethanone]	185 nM
CC(c1ccc2c(c1)Nc1ccccc1S2)S(=O)(=O)N1C2CCC1CC(O)C2 (stereo not shown) [Compound C8, 8-((1-(10H-phenothiazin-2-yl)ethyl)sulfonyl)-8-azabicyclo[3.2.1]-3-octanol]	46 nM
CCN1CCN(S(=O)(=O)C(C)c2ccc3c(c2)Nc2ccccc2S3)CC1 (stereo not shown) [Compound C10, 2-(1-((4-ethylpiperazin-1-yl)sulfonyl)ethyl)-10H-phenothiazine]	17 nM
CC(c1ccc2c(c1)Nc1ccccc1S2)S(=O)(=O)N1CCN(C(=O)C2CCCO2)CC1 (stereo not shown) [Compound C11, (4-((1-(10H-phenothiazin-2-yl)ethyl)sulfonyl)piperazin-1-yl)(tetrahydrofuran-2-yl)ketone]	269 nM
CC(c1ccc2c(c1)Nc1ccccc1S2)S(=O)(=O)N1CCN(CCO)CC1 (stereo not shown) [Compound C13, 2-(4-((1-(10H-phenothiazin-2-yl)ethyl)sulfonyl)piperazin-1-yl)-1-ethanol]	62 nM
CC(=O)N1CCN(S(=O)(=O)C(C)c2ccc3c(c2)Nc2ccccc2S3)CC1 (stereo not shown) [Compound C15, 1-(4-((1-(10H-phenothiazin-2-yl)ethyl)sulfonyl)piperazin-1-yl)-1-ethanone]	132 nM
CC(c1ccc2c(c1)Nc1ccccc1S2)S(=O)(=O)N1CCN(S(C)(=O)=O)CC1 (stereo not shown) [Compound C16, 2-(1-((4-(methylsulfonyl)piperazin-1-yl)sulfonyl)ethyl)-10H-phenothiazine]	35 nM
CC(c1ccc2c(c1)Nc1ccccc1S2)S(=O)(=O)N1CCN(c2ccncc2)CC1 (stereo not shown) [Compound C17, 2-(1-((4-(pyridin-4-yl)piperazin-1-yl)sulfonyl)ethyl)-10H-phenothiazine]	5 nM
CC(c1ccc2c(c1)Nc1ccccc1S2)S(=O)(=O)N1CCSCC1 (stereo not shown) [Compound C20, 2-(1-(thiomorpholinesulfonyl)ethyl)-10H-phenothiazine]	31 nM
CC(c1ccc2c(c1)Nc1ccccc1S2)S(=O)(=O)N1CCCC1 (stereo not shown) [Compound C21]	257 nM
CCOC(=O)C1CCN(S(=O)(=O)C(C)c2ccc3c(c2)Nc2ccccc2S3)CC1 (stereo not shown) [Compound C23]	620 nM
CC(=O)N1CCCN(S(=O)(=O)C(C)c2ccc3c(c2)Nc2ccccc2S3)CC1 (stereo not shown) [Compound C25, 1-(4-((1-(10H-phenothiazin-2-yl)ethyl)sulfonyl)-1,4-homopiperazin-1-yl)-1-ethanone]	405 nM
CC(c1ccc2c(c1)Nc1ccccc1S2)S(=O)(=O)N1CCN(C(c2ccccc2)c2ccccc2)CC1 (stereo not shown) [Compound C26, 2-(1-((4-diphenylmethylpiperazin-1-yl)sulfonyl)ethyl)-10H-phenothiazine]	388 nM
CC(c1ccc2c(c1)Nc1ccccc1S2)S(=O)(=O)N1CCC(O)(c2ccc(Cl)cc2)CC1 (stereo not shown) [Compound C30, 1-((1-(10H-phenothiazin-2-yl)ethyl)sulfonyl)-4-(4-chlorophenyl)-4-piperidinol]	95 nM
CC(c1ccc2c(c1)Nc1ccccc1S2)S(=O)(=O)N1CCN(c2ccc(F)cc2)CC1 (stereo not shown) [Compound C34, 2-(1-((4-(4-fluorophenyl)piperazin-1-yl)sulfonyl)ethyl)-10H-phenothiazine]	233 nM
CC(c1ccc2c(c1)Nc1ccccc1S2)S(=O)(=O)N1CCC(NC(=O)OC(C)(C)C)CC1 (stereo not shown) [Compound C37, t-butyl (1-((1-(10H-phenothiazin-2-yl)ethyl)sulfonyl)piperidin-4-yl)carbamate]	271 nM
CC(c1ccc2c(c1)Nc1ccccc1S2)S(=O)(=O)N1CCCC(CO)C1 (stereo not shown) [Compound C38, (1-((1-(10H-phenothiazin-2-yl)ethyl)sulfonyl)piperidin-3-yl)methanol]	229 nM
CC(c1ccc2c(c1)Nc1ccccc1S2)S(=O)(=O)N1CC[C@H](O)C1 (stereo partly shown) [Compound C41]	117 nM
CC(c1ccc2c(c1)Nc1ccccc1S2)S(=O)(=O)N1CCC[C@@H]1C (stereo partly shown) [Compound C42]	335 nM
CC(c1ccc2c(c1)Nc1ccccc1S2)S(=O)(=O)N1C[C@@H](C)O[C@@H](C)C1 (stereo partly drawn) [Compound C44, (2S,6R)-4-((1-(10H-phenothiazin-2-yl)ethyl)sulfonyl)-2,6-dimethylmorpholine]	426 nM
CC1CCN(S(=O)(=O)C(C)c2ccc3c(c2)Nc2ccccc2S3)CC1 (stereo not shown) [Compound C45, 2-(1-((4-methylpiperidin-1-yl)sulfonyl)ethyl)-10H-phenothiazine]	226 nM

Continued, values first:

EC50	SMILES
46 nM	CC(c1ccc2c(c1)Nc1ccccc1S2)S(=O)(=O)N1CCN(CCCN(C)C)CC1 (stereo not shown) [Compound C7, 3-(4-((1-(10H-phenothiazin-2-yl)ethyl)sulfonyl)piperazin-1-yl)-N,N-dimethylpropan-1-amine]
85 nM	CC(c1ccc2c(c1)Nc1ccccc1S2)S(=O)(=O)N1CCN(CCc2ccccc2)CC1 (stereo not shown) [Compound C9, 2-(1-((4-phenethylpiperazin-1-yl)sulfonyl)ethyl)-10H-phenothiazine]
76 nM	CC(c1ccc2c(c1)Nc1ccccc1S2)S(=O)(=O)N1CCN(CCN2CCOCC2)CC1 (stereo not shown) [Compound C12, 4-(2-(4-((1-(10H-phenothiazin-2-yl)ethyl)sulfonyl)piperazin-1-yl)ethyl)morpholine]
260 nM	CC(c1ccc2c(c1)Nc1ccccc1S2)S(=O)(=O)N1CC[C@@H](O)C1 (stereo partly shown) [Compound C14]
79 nM	CC(c1ccc2c(c1)Nc1ccccc1S2)S(=O)(=O)N1CCC(O)CC1 (stereo not shown) [Compound C18, 1-((1-(10H-phenothiazin-2-yl)ethyl)sulfonyl)-4-piperidinol]
256 nM	CC(c1ccc2c(c1)Nc1ccccc1S2)S(=O)(=O)N1CCN(NC(=O)OC(C)(C)C)CC1 (stereo not shown) [Compound C27, t-butyl 4-((1-(10H-phenothiazin-2-yl)ethyl)sulfonyl)piperazin-1-carbamate]
228 nM	CC(c1ccc2c(c1)Nc1ccccc1S2)S(=O)(=O)N1CCC[C@H](NC(=O)OC(C)(C)C)C1 (stereo partly drawn) [Compound C29, t-butyl ((3S)-1-((1-(10H-phenothiazin-2-yl)ethyl)sulfonyl)piperidin-3-yl) carbamate]
399 nM	CC(c1ccc2c(c1)Nc1ccccc1S2)S(=O)(=O)N1CC[C@H](NC(=O)OC(C)(C)C)C1 (stereo partly drawn) [Compound C31, t-butyl ((3S)-1-((1-(10H-phenothiazin-2-yl)ethyl)sulfonyl)pyrrolin-3-yl)carbamate]
586 nM	CC(c1ccc2c(c1)Nc1ccccc1S2)S(=O)(=O)N1CCC[C@@H](NC(=O)OC(C)(C)C)C1 (stereo partly drawn) [Compound C32, t-butyl ((3R)-1-((1-(10H-phenothiazin-2-yl)ethyl)sulfonyl)piperidin-3-yl)carbamate]
342 nM	CC(c1ccc2c(c1)Nc1ccccc1S2)S(=O)(=O)N1CCCC(CNC(=O)OC(C)(C)C)C1 (stereo not shown) [Compound C35, t-butyl ((1-((1-(10H-phenothiazin-2-yl)ethyl)sulfonyl)piperidin-3-yl)methyl)carbamate]
129 nM	CC(c1ccc2c(c1)Nc1ccccc1S2)S(=O)(=O)N1CCN(Cc2ccc(Cl)cc2)CC1 (stereo not shown) [Compound C36, 2-(1-((4-(4-chlorobenzyl)piperazin-1-yl)sulfonyl)ethyl)-10H-phenothiazine]
244 nM	CCOC(=O)[C@@H]1CCCN(S(=O)(=O)C(C)c2ccc3c(c2)Nc2ccccc2S3)C1 (stereo partly drawn) [Compound C39, ethyl (3R)-1-((1-(10H-phenothiazin-2-yl)ethyl)sulfonyl)piperidin-3-formate]
142 nM	CC(c1ccc2c(c1)Nc1ccccc1S2)S(=O)(=O)N1CCCC(O)C1 (stereo not shown) [Compound C40, 1-((1-(10H-phenothiazin-2-yl)ethyl)sulfonyl)piperidin-3-ol]
49 nM	CC(c1ccc2c(c1)Nc1ccccc1S2)S(=O)(=O)N1CCC(N2CCCCC2)CC1 (stereo not shown) [Compound C43, 2-(1-([1,4′-dipiperidin]-1′-ylsulfonyl)ethyl)-10H-phenothiazine]
156 nM	CC1CCCN(S(=O)(=O)C(C)c2ccc3c(c2)Nc2ccccc2S3)C1 (stereo not shown) [Compound C46, 2-(1-((3-methylpiperidin-1-yl)sulfonyl)ethyl)-10H-phenothiazine]
